Where “and” joins values, the source holds several entries; their conditions need not be identical. Equal entries are not always repeated. Inconclusive results and toxic doses are left out. The calls were made as follows: active = survival T/C of 150% or more; inactive = T/C below 125% in these data.
Tested on: P388 leukemia ip, CD2F1 mice, survival T/C
Experiment: NCI In Vivo Anticancer Drug Screen. Data for tumor model P388 Leukemia (intraperitoneal) in CD2F1 (CDF1) mice
Conditions: endpoint: median survival time, higher = longer survival
Outline: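 Mice carrying the transplanted tumor received test compound or vehicle. Survival was recorded in each group, and the value is the treated-group measurement divided by that of the vehicle-treated control group.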

[1] = dose: 100.0 mg/kg/injection, schedule: Q01DX001 (ip), vehicle: Klucel (hydroxypropylcellulose) (HPC)
[2] = dose: 200.0 mg/kg/injection, schedule: Q01DX001 (ip), vehicle: Klucel (hydroxypropylcellulose) (HPC)
[3] = dose: 50.0 mg/kg/injection, schedule: Q01DX005 (ip), vehicle: Klucel (hydroxypropylcellulose) (HPC)
[4] = dose: 100.0 mg/kg/injection, schedule: Q01DX005 (ip), vehicle: Klucel (hydroxypropylcellulose) (HPC)
[5] = dose: 200.0 mg/kg/injection, schedule: Q01DX005 (ip), vehicle: Klucel (hydroxypropylcellulose) (HPC)
[6] = dose: 60.0 mg/kg/injection, schedule: Q01DX005 (ip), vehicle: Klucel (hydroxypropylcellulose) (HPC)
[7] = dose: 120.0 mg/kg/injection, schedule: Q01DX005 (ip), vehicle: Klucel (hydroxypropylcellulose) (HPC)
[8] = dose: 240.0 mg/kg/injection, schedule: Q01DX005 (ip), vehicle: Klucel (hydroxypropylcellulose) (HPC)
[9] = dose: 100.0 mg/kg/injection, schedule: Q04DX002 (ip), vehicle: saline with Tween-80
[10] = dose: 200.0 mg/kg/injection, schedule: Q04DX002 (ip), vehicle: saline with Tween-80
[11] = dose: 400.0 mg/kg/injection, schedule: Q01DX001 (ip), vehicle: Klucel (hydroxypropylcellulose) (HPC)
[12] = dose: 25.0 mg/kg/injection, schedule: Q01DX009 (ip), vehicle: saline with Tween-80
[13] = dose: 100.0 mg/kg/injection, schedule: Q01DX009 (ip), vehicle: saline with Tween-80
[14] = dose: 50.0 mg/kg/injection, schedule: Q01DX009 (ip), vehicle: saline
[15] = dose: 100.0 mg/kg/injection, schedule: Q01DX009 (ip), vehicle: saline
[16] = dose: 200.0 mg/kg/injection, schedule: Q01DX009 (ip), vehicle: saline
[17] = dose: 100.0 mg/kg/injection, schedule: Q04DX003 (ip), vehicle: Klucel (hydroxypropylcellulose) (HPC)
[18] = dose: 200.0 mg/kg/injection, schedule: Q04DX003 (ip), vehicle: Klucel (hydroxypropylcellulose) (HPC)
[19] = dose: 400.0 mg/kg/injection, schedule: Q04DX003 (ip), vehicle: Klucel (hydroxypropylcellulose) (HPC)
[20] = dose: 50.0 mg/kg/injection, schedule: Q01DX009 (ip), vehicle: Klucel (hydroxypropylcellulose) (HPC)
[21] = dose: 100.0 mg/kg/injection, schedule: Q01DX009 (ip), vehicle: Klucel (hydroxypropylcellulose) (HPC)
[22] = dose: 200.0 mg/kg/injection, schedule: Q01DX009 (ip), vehicle: Klucel (hydroxypropylcellulose) (HPC)

Measured: T/C

Cc1ccc(S(=O)(=O)N/N=C/C=C\C(=O)O)cc1
inactive: dose: 12.5 mg/kg/injection, schedule: Q01DX009 (ip), vehicle: distilled water + Tween-80 101 % of control | dose: 25.0 mg/kg/injection, schedule: Q01DX009 (ip), vehicle: distilled water + Tween-80 99 % of control | dose: 50.0 mg/kg/injection, schedule: Q01DX009 (ip), vehicle: distilled water + Tween-80 107 % of control | dose: 100.0 mg/kg/injection, schedule: Q01DX009 (ip), vehicle: distilled water + Tween-80 100 % of control | dose: 200.0 mg/kg/injection, schedule: Q01DX009 (ip), vehicle: distilled water + Tween-80 94 % of control | dose: 400.0 mg/kg/injection, schedule: Q01DX009 (ip), vehicle: distilled water + Tween-80 110 % of control

Clc1cccc2nn3ccnc3n12
inactive: dose: 50.0 mg/kg/injection, schedule: Q01DX001 (ip), vehicle: Klucel (hydroxypropylcellulose) (HPC) 105 % of control | [1] 99 % of control | [2] 102 % of control

CCOC(=O)c1cccc(N)c1C(=O)OCCN(CC)CC
inactive: [3] 93 % of control | [4] 87 % of control | [5] 99 % of control

NC1=C(O)C(=O)C(c2cccnc2)O1 (configuration not stated)
inactive: dose: 30.0 mg/kg/injection, schedule: Q01DX005 (ip), vehicle: Klucel (hydroxypropylcellulose) (HPC) 102 % of control | [6] 96 % of control | [7] 86 % of control and 93 % of control | [8] 86 % of control

CCOc1ccc(-c2nn(C(=O)c3ccccc3)c(-c3ccccc3)c2N=Nc2ccc(S(=O)(=O)Nc3nnc(C)s3)cc2)cc1
inactive: [9] 93 % of control | [10] 89 % of control | dose: 400.0 mg/kg/injection, schedule: Q04DX002 (ip), vehicle: saline with Tween-80 93 % of control

Ic1cc2c(cc1C1CO1)OCO2 (configuration not stated)
inactive: [1] 103 % of control | [2] 99 % of control | [11] 96 % of control

NC(Cc1ccccc1Br)c1nn[nH]n1 (configuration not stated)
inactive: [12] 97 % of control | dose: 50.0 mg/kg/injection, schedule: Q01DX009 (ip), vehicle: saline with Tween-80 104 % of control | [13] 114 % of control

O=C(O)c1cc(Br)no1
inactive: [14] 95 % of control | [15] 90 % of control | [16] 89 % of control

O=C(CC(=O)C(F)(F)F)c1cccs1.O=C(CC(=O)C(F)(F)F)c1cccs1.O=C(CC(=O)C(F)(F)F)c1cccs1.[Gd]
inactive: [14] 96 % of control | [15] 96 % of control | [16] 99 % of control

Cc1c2cnccc2c(C)c2c1c1ccccc1n2CCOC(=O)c1ccccc1
inactive: dose: 100.0 mg/kg/injection, schedule: Q04DX003 (ip), vehicle: saline with Tween-80 95 % of control | dose: 200.0 mg/kg/injection, schedule: Q04DX003 (ip), vehicle: saline with Tween-80 86 % of control | dose: 400.0 mg/kg/injection, schedule: Q04DX003 (ip), vehicle: saline with Tween-80 86 % of control

O=C1OCCOCCOCCOCCOC(=O)C1c1ccccc1
inactive: [17] 101 % of control | [18] 101 % of control | [19] 101 % of control

CCCCCCCCCCCC(=O)N(CCOC(=O)C(C)(C)C)CCOC(=O)C(C)(C)C
inactive: dose: 25.0 mg/kg/injection, schedule: Q01DX009 (ip), vehicle: Klucel (hydroxypropylcellulose) (HPC) 97 % of control | [20] 104 % of control and 113 % of control and 94 % of control | [21] 100 % of control (2×) and 111 % of control | [22] 99 % of control and 120 % of control | dose: 400.0 mg/kg/injection, schedule: Q01DX009 (ip), vehicle: Klucel (hydroxypropylcellulose) (HPC) 108 % of control

CN(C)N=Nc1cccc(C(F)(F)F)c1
inactive: dose: 25.0 mg/kg/injection, schedule: Q01DX008 (ip), vehicle: saline with Tween-80 104 % of control | dose: 50.0 mg/kg/injection, schedule: Q01DX007 (ip), vehicle: saline 120 % of control | dose: 50.0 mg/kg/injection, schedule: Q01DX008 (ip), vehicle: saline with Tween-80 101 % of control | dose: 100.0 mg/kg/injection, schedule: Q01DX008 (ip), vehicle: saline with Tween-80 101 % of control

CC1=C(CC/C(C)=C/CCC2=CCC(C3=CC(=O)OC3O)OC2O)C(C)(C)CCC1 (configuration not stated)
inactive: dose: 1.0 mg/kg/injection, schedule: Q01DX009 (ip), vehicle: Klucel (hydroxypropylcellulose) (HPC) 116 % of control | dose: 2.0 mg/kg/injection, schedule: Q01DX009 (ip), vehicle: Klucel (hydroxypropylcellulose) (HPC) 111 % of control | dose: 4.0 mg/kg/injection, schedule: Q01DX009 (ip), vehicle: Klucel (hydroxypropylcellulose) (HPC) 117 % of control | dose: 8.0 mg/kg/injection, schedule: Q01DX009 (ip), vehicle: Klucel (hydroxypropylcellulose) (HPC) 100 % of control | dose: 16.0 mg/kg/injection, schedule: Q01DX009 (ip), vehicle: Klucel (hydroxypropylcellulose) (HPC) 117 % of control

O=C(O)c1ccc2n[se]nc2c1
inactive: dose: 60.0 mg/kg/injection, schedule: Q01DX005 (ip), vehicle: saline with Tween-80 96 % of control | dose: 120.0 mg/kg/injection, schedule: Q01DX005 (ip), vehicle: saline with Tween-80 105 % of control | dose: 240.0 mg/kg/injection, schedule: Q01DX005 (ip), vehicle: saline with Tween-80 97 % of control

CCOP(O)(=S)OCC.[Gd]
inactive: [17] 90 % of control | [18] 90 % of control | [19] 90 % of control

CC1(C)CC(=O)C=C(NCCCCCCNC2=CC(=O)CC(C)(C)C2)C1
inactive: [20] 113 % of control | [21] 103 % of control | [22] 95 % of control

CC(C)=CCc1ccc2c(c1)CCCN2C
inactive: [9] 108 % of control | [10] 108 % of control

OCCCN(CCCO)CCN(CCCO)CCCO
inactive: dose: 100.0 mg/kg/injection, schedule: Q04DX003 (ip), vehicle: saline 97 % of control | dose: 200.0 mg/kg/injection, schedule: Q04DX003 (ip), vehicle: saline 97 % of control | dose: 400.0 mg/kg/injection, schedule: Q04DX003 (ip), vehicle: saline 87 % of control

COc1cc(C(C)(C)C)cc(OC)c1C(O)(c1c(OC)cc(C(C)(C)C)cc1OC)c1c(OC)cc(C(C)(C)C)cc1OC
inactive: [12] 121 % of control | [13] 104 % of control

O=C(O)/C=N/NS(=O)(=O)c1cccc(S(=O)(=O)N/N=C/C(=O)O)c1
inactive: dose: 12.5 mg/kg/injection, schedule: Q01DX009 (ip), vehicle: water 119 % of control

O=C1OC(C(O)CO)C(=N\Nc2ccc(Cl)cc2)/C1=N/Nc1ccccc1 (configuration not stated)
inactive: [1] 103 % of control | [2] 103 % of control | [11] 110 % of control

Cc1cc2c(cc1C)NC1=C(N2)OC(c2ccc(C3OC4=C(Nc5cc(C)c(C)cc5N4)C3=O)cc2)C1=O (configuration not stated)
inactive: [6] 92 % of control | [7] 92 % of control | [8] 93 % of control

Cc1ccc(C(=O)/C([S-])=C(\Nc2cccc(Cl)c2)[n+]2ccccc2)cc1
inactive: [3] 100 % of control | [4] 98 % of control | [5] 93 % of control

— PubChem BioAssay AID330 (DTP/NCI, 2004)
